According to patent US20140163073A1, “Small Molecule Inhibitors of P-type ATPases” (priority 2012, published 2014):
Converted amounts (≈) assume the structure as drawn. “Also recorded” adds a separate entry of the source. Like-named read-outs stand apart in the source and are kept apart here.

What was measured:
ATP7A = biological target: T1, ATP7A (Mus musculus, UniProt Q64430); test: Cu+2-stimulated ATP7A trafficking, co-localization assay; assay type: cell-based; settings: B16F10 cells
T1 construct: endogenous in cells; host or cells: B16F10 mouse melanoma cells
T1 sequence (Q64430 1-1491): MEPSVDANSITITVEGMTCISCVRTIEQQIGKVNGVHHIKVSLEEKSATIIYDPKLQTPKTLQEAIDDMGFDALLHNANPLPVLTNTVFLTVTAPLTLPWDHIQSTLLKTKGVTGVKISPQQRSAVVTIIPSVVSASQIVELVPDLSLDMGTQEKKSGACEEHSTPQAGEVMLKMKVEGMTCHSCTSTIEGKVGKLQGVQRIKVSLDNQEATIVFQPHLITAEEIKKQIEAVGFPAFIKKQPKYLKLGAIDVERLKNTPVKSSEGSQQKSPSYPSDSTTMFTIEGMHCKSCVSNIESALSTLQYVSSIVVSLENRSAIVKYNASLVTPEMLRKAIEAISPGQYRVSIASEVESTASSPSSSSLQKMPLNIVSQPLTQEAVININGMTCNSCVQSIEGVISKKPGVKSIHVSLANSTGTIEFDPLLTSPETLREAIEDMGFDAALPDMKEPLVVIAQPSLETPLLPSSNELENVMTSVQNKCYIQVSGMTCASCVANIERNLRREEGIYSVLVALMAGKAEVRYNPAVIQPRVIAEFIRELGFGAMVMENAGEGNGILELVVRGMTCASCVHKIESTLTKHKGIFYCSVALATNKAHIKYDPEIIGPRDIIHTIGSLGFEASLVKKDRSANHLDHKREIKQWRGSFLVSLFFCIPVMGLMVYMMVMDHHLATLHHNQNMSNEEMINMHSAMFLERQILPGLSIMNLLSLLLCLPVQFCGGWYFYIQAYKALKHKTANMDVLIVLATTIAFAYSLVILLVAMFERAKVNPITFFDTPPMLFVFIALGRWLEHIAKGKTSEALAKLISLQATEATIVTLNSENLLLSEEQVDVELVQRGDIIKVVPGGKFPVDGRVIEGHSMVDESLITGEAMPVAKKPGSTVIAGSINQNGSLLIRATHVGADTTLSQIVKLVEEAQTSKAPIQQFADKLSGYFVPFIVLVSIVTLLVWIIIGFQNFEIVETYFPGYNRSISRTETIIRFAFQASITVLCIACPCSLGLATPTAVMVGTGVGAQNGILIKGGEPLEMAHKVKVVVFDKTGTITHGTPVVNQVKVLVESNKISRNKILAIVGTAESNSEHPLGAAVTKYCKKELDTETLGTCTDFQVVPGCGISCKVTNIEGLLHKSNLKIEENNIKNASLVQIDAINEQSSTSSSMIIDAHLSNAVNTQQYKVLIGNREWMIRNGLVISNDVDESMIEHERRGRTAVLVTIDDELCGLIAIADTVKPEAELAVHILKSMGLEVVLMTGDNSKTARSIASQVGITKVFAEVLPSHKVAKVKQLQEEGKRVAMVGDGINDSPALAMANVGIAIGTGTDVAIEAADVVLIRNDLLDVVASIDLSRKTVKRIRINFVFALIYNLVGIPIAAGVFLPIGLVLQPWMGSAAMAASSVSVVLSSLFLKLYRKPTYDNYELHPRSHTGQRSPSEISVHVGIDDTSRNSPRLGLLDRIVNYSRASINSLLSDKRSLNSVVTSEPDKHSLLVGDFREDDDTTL
Protocol: Cells were incubated for 16 hours with […] omeprazole or the vehicle (DMSO) and then treated with Cu+2, or not treated, to determine if omeprazole could inhibit Cu+2-stimulated (CuCl2) ATP7A trafficking. […] ATP7A is seen as green following immunofluorescence protocols previously described (Petris et al., 1999), the Golgi stained red, and the nucleus stained blue. […]
This is consistent with the idea that omeprazole is metabolized to generate an inhibitory metabolite (such as hydroxy-omeprazole or perhaps the sulfonated metabolite) which then interacts with newly synthesized tyrosinase. This finding also is consistent with the hypothesis that omeprazole inhibits metallation of newly synthesized tyrosinase via ATP7A, rather than functioning as a direct inhibitor of tyrosinase per se; that is, a 72 hour incubation in omeprazole appears to be required so that preexisting tyrosinase can be turned over, allowing the inhibitory effect of omeprazole to be detected on newly synthesized tyrosinase.

melanocytes = test: Inhibition of melanogenesis / pigment development in cultured melanocytes; assay type: cell-based
[1] = pH below 0.8; cited from earlier work
[2] = system: normal human epidermal melanocytes; test: Melanogenesis and melanin content in normal human epidermal melanocytes; assay type: cell-based
Source text: (§1) PPIs had been known to function in the parietal cells to block the production of stomach acid by binding to at least one cysteine residue of the gastric proton pump, ATP4A, to thus effect long-lasting, semi-irreversible inactivation of the ATP4A. In order to bind to the ATPase, the PPI must be in its active form, and the PPI requires an acidic environment to undergo rearrangement to its active form.

[3] = system: tyrosinase, MITF, TRP-2, Pme117 mRNA; test: mRNA levels of melanogenesis related proteins by RT-PCR in B16F10 mouse melanoma cells; assay type: cell-based
Source text: The inventors next examined the effect of omeprazole on tyrosinase, the principal, rate-limiting enzyme in melanin synthesis.

[4] = system: reconstructed human skin model; test: Reconstructed human skin model; assay type: cell-based
Source text: as §1

| ATP7A trafficking without Cu+2 stimulation (ATP7A; SCH-28080, absence of Cu+2) | SMILES | inhibition of Cu+2-stimulated ATP7A re-localization (ATP7A; 100 μM for 16 hours, then 10 μM Cu+2 for 3 hours) | inhibition of melanogenesis (melanocytes) | inhibition of melanogenesis (melanocytes; listed as SCH-20808) | reorganization (stability) [1] | cytotoxicity [2] | EC50 ([2]; Melanocyte, read-out: EC50 of melanogenesis inhibition) [µg/mL] | tyrosinase mRNA levels [3] | concentration that inhibits melanogenesis (melanocytes; cultured melanocytes) [µg/mL] | concentration at which effective [4] [µg/mL] |
| --- | --- | --- | --- | --- | --- | --- | --- | --- | --- | --- |
| no effect on ATP7A trafficking | Cc1nc2c(OCc3ccccc3)cccn2c1CC#N [SCH-28080] | inhibition; also recorded: very potent inhibitor | also inhibited melanogenesis | strongly inhibited melanogenesis | – | – | – | – | – | – |
| – | C[C@@H]1O[C@@H](O[C@H]2C[C@@H](O)[C@]3(CO)[C@H]4[C@H](O)C[C@]5(C)[C@@H](C6=CC(=O)OC6)CC[C@]5(O)[C@@H]4CC[C@]3(O)C2)[C@H](O)[C@H](O)[C@H]1O [ouabain] | – | does not inhibit melanogenesis | – | – | – | – | – | – | – |
| – | COc1ccc2[nH]c([S+]([O-])Cc3ncc(C)c(OC)c3C)nc2c1 (centres unmarked) [omeprazole, 5- or 6-methoxy-2-{[(4-methoxy-3,5-dimethylpyridin-2-yl)methyl]sulfinyl}-1H-benzimidazole] | – | – | – | quickly reorganizes into the sulfonamide analog | low cytotoxicity | 15 (≈ 43.4 µM) | no effect | 5 to 50 | 50 |
